Reference: US20120035206A1, “PREPARATION AND APPLICATION OF NOVEL ANTIBACTERIAL AND ANTICANCER COMPOUNDS AND THEIR DERIVATIVES” (priority 2009, published 2012)
Converted amounts (≈) assume the structure as drawn.

Columns and labels:
Assay type in all cases: cell-based
A375 = assay: In vitro anticancer MTT experiment; settings: Homo sapiens, A-375, concentration 5 ug/ml, 48 h or 72 h, read-out: inhibition ratio A375
Method in brief: (§1)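 MTT read-out (OD 570 nm after DMSO solubilisation); inhibition ratio = (Anegative − Asample)/(Anegative − Ablank), given at 5 ug/ml. Log-phase cells, 6000-7000/well, 12 h pre-culture, then 48 h or 72 h drug exposure, RPMI 1640 + 10% FCS.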

AS24391 = assay: In vitro anticancer MTT experiment; settings: concentration 5 ug/ml, 48 h or 72 h, read-out: inhibition ratio AS24391
Method in brief: as §1

FTC 133 = assay: In vitro anticancer MTT experiment; settings: Homo sapiens, concentration 5 ug/ml, 48 h or 72 h, read-out: inhibition ratio FTC 133
Method in brief: as §1

CRL-1435PC-3 = assay: In vitro anticancer MTT experiment; settings: concentration 5 ug/ml, 48 h or 72 h, read-out: inhibition ratio CRL-1435PC-3
Method in brief: as §1

L1210 = assay: In vitro anticancer MTT experiment; settings: Mus musculus, concentration 5 ug/ml, 48 h or 72 h, read-out: inhibition ratio L1210
Method in brief: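 Cells in RPMI 1640 with 10% fetal calf serum were seeded at 6000-7000 per well, rested 12 h at 37° C., then exposed to compound for 48 h or 72 h. MTT was read as OD at 570 nm. Inhibition ratio was derived against untreated and blank wells, with reported values taken at 5 ug/ml.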

SGC7901 = assay: In vitro anticancer MTT experiment; settings: Homo sapiens, SGC-7901, concentration 5 ug/ml, 48 h or 72 h, read-out: inhibition ratio SGC7901
Method in brief: as §1

CRL-2233SNU-398 = assay: In vitro anticancer MTT experiment; settings: concentration 5 ug/ml, 48 h or 72 h, read-out: inhibition ratio CRL-2233SNU-398
Method in brief: as §1

B01092 = assay: In vitro anticancer MTT experiment; settings: concentration 5 ug/ml, 48 h or 72 h, read-out: inhibition ratio B01092
Method in brief: as §1

HTB-95637 = assay: In vitro anticancer MTT experiment; settings: concentration 5 ug/ml, 48 h or 72 h, read-out: inhibition ratio HTB-95637
Method in brief: as §1

CRL-1469PANC-1 = assay: In vitro anticancer MTT experiment; settings: concentration 5 ug/ml, 48 h or 72 h, read-out: inhibition ratio CRL-1469PANC-1
Method in brief: as §1

L428 = assay: In vitro anticancer MTT experiment; settings: Homo sapiens, L-428, concentration 5 ug/ml, 48 h or 72 h, read-out: inhibition ratio L428
Method in brief: as §1

Terchoderma = assay: In vitro antibacterial (antifungal) test, two-fold dilution MIC; settings: Trichoderma, RPMI 1640, culture 2-7 days
S. schenekn = assay: as above; settings: RPMI 1640, culture 2-7 days
gibberella = assay: as above; settings: RPMI 1640, culture 2-7 days
M. gypseum = assay: as above; settings: Nannizzia gypsea, RPMI 1640, culture 2-7 days
C. tropicalis = assay: as above; settings: Candida tropicalis, RPMI 1640, culture 2-7 days
Setosphaeria turcica = assay: as above; settings: Exserohilum turcicum, RPMI 1640, culture 2-7 days
C. neoformans = assay: as above; settings: Cryptococcus neoformans, RPMI 1640, culture 2-7 days
C. parapsilosis = assay: as above; settings: Lodderomyces parapsilosis, RPMI 1640, culture 2-7 days
C. glabrata = assay: as above; settings: Nakaseomyces glabratus, RPMI 1640, culture 2-7 days
C. Krusei = assay: as above; settings: Pichia kudriavzevii, RPMI 1640, culture 2-7 days
[1] = tested on: Fusarium oxysporum vasinfectum; assay: as above; settings: RPMI 1640, culture 2-7 days
C. albicans = assay: as above; settings: Candida albicans, read-out: MIC C. albicas
HTB-94 = assay: In vitro anticancer MTT experiment; settings: concentration 5 ug/ml, 48 h or 72 h, read-out: inhibition ratio HTB-94
Method in brief: as §1

HTB-131MDA-MB-453 = assay: In vitro anticancer MTT experiment; settings: concentration 5 ug/ml, 48 h or 72 h, read-out: inhibition ratio HTB-131MDA-MB-453
Method in brief: as §1

HTB-38HT-29 = assay: In vitro anticancer MTT experiment; settings: concentration 5 ug/ml, 48 h or 72 h, read-out: inhibition ratio HTB-38HT-29
Method in brief: as §1

E. floccosum = assay: In vitro antibacterial (antifungal) test, two-fold dilution MIC; settings: Epidermophyton floccosum, RPMI 1640, culture 2-7 days

| SMILES | inhibition at 5 µg/mL (A375) | inhibition at 5 µg/mL (AS24391) | inhibition at 5 µg/mL (FTC 133) | inhibition at 5 µg/mL (CRL-1435PC-3) | inhibition at 5 µg/mL (L1210) | inhibition at 5 µg/mL (SGC7901) | inhibition at 5 µg/mL (CRL-2233SNU-398) | inhibition at 5 µg/mL (B01092) | inhibition at 5 µg/mL (HTB-95637) | inhibition at 5 µg/mL (CRL-1469PANC-1) | inhibition at 5 µg/mL (L428) | MIC (S. schenekn) | MIC (gibberella) | MIC (M. gypseum) | MIC (C. tropicalis) | MIC (Setosphaeria turcica) | MIC (C. neoformans) | MIC (C. parapsilosis) | MIC (C. glabrata) | MIC (C. Krusei) | other results |
| --- | --- | --- | --- | --- | --- | --- | --- | --- | --- | --- | --- | --- | --- | --- | --- | --- | --- | --- | --- | --- | --- |
| Cc1ccc2c(c1)C(=O)/C(=C/Cl)CS2 [Compound 5, (Z)-3-(chloromethylene)-6-methylthiochroman-4-one] | 65.9% | 49.8% | 60.2% | 55.6% | 87.6% | 62.1% | 60.1% | 58% | 76.6% | 40.9% | 46.8% | 8 µg/mL (≈ 35.6 µM) | 16 µg/mL (≈ 71.2 µM) | 4 µg/mL (≈ 17.8 µM) | 32 µg/mL (≈ 142 µM) | 8 µg/mL (≈ 35.6 µM) | 0.5 µg/mL (≈ 2.23 µM) | 8 µg/mL (≈ 35.6 µM) | 2 µg/mL (≈ 8.9 µM) | 4 µg/mL (≈ 17.8 µM) | MIC (Terchoderma): 32 µg/mL (≈ 142 µM); MIC [1]: 8 µg/mL (≈ 35.6 µM); MIC (C. albicans): 8 µg/mL (≈ 35.6 µM) |
| Cc1cc2c(cc1F)CS/C(=C\Br)C2=O [Compound 16, (Z)-3-(bromomethylene)-7-fluoro-6-methylisothiochroman-4-one] | 30.5% | 57.8% | 46.5% | 56.9% | 85.9% | 56.7% | – | 60.4% | 36% | 57.9% | 43.1% | 8 µg/mL (≈ 27.9 µM) | 32 µg/mL (≈ 111 µM) | 16 µg/mL (≈ 55.7 µM) | 32 µg/mL (≈ 111 µM) | 32 µg/mL (≈ 111 µM) | 4 µg/mL (≈ 13.9 µM) | 4 µg/mL (≈ 13.9 µM) | 4 µg/mL (≈ 13.9 µM) | 32 µg/mL (≈ 111 µM) | inhibition at 5 µg/mL (HTB-94): 63.2%; inhibition at 5 µg/mL (HTB-131MDA-MB-453): 46.3%; inhibition at 5 µg/mL (HTB-38HT-29): 48%; MIC (E. floccosum): 16 µg/mL (≈ 55.7 µM); MIC (Terchoderma): 16 µg/mL (≈ 55.7 µM); MIC [1]: 16 µg/mL (≈ 55.7 µM); MIC (C. albicans): 32 µg/mL (≈ 111 µM) |
| OC1/C(=C/Cl)SCc2ccccc21 (centres unmarked) [Compound 20, (Z)-3-(chloromethylene)isothiochroman-4-ol] | 50.2% | 49.8% | 36.9% | 45.5% | 80.3% | 45.9% | 40.4% | 46.9% | 56.2% | 34.5% | 43.3% | 32 µg/mL (≈ 150 µM) | 16 µg/mL (≈ 75.2 µM) | 16 µg/mL (≈ 75.2 µM) | 32 µg/mL (≈ 150 µM) | 8 µg/mL (≈ 37.6 µM) | 16 µg/mL (≈ 75.2 µM) | 8 µg/mL (≈ 37.6 µM) | 8 µg/mL (≈ 37.6 µM) | 32 µg/mL (≈ 150 µM) | inhibition at 5 µg/mL (HTB-94): 45.7%; inhibition at 5 µg/mL (HTB-131MDA-MB-453): 25.8%; inhibition at 5 µg/mL (HTB-38HT-29): 45.5%; MIC (E. floccosum): 16 µg/mL (≈ 75.2 µM); MIC (C. albicans): 16 µg/mL (≈ 75.2 µM) |
| O=C1/C(=C\Cl)CSc2ccc(F)cc21 [Compound 22, (E)-3-(chloromethylene)-6-fluorothiochroman-4-one] | 56.7% | 43.5% | – | 30.5% | 86.7% | 60.7% | 49% | 43.6% | 36.9% | 33.3% | 53.9% | 8 µg/mL (≈ 35 µM) | 4 µg/mL (≈ 17.5 µM) | 16 µg/mL (≈ 70 µM) | 32 µg/mL (≈ 140 µM) | 8 µg/mL (≈ 35 µM) | 16 µg/mL (≈ 70 µM) | 16 µg/mL (≈ 70 µM) | 8 µg/mL (≈ 35 µM) | 16 µg/mL (≈ 70 µM) | inhibition at 5 µg/mL (HTB-94): 51%; inhibition at 5 µg/mL (HTB-131MDA-MB-453): 55.9%; inhibition at 5 µg/mL (HTB-38HT-29): 47.8%; MIC (E. floccosum): 16 µg/mL (≈ 70 µM); MIC (Terchoderma): 32 µg/mL (≈ 140 µM); MIC [1]: 16 µg/mL (≈ 70 µM); MIC (C. albicans): 4 µg/mL (≈ 17.5 µM) |
| Cc1ccc(S/C=C2/CSc3ccc(F)cc3C2=O)cc1F [Compound 23, (E)-6-fluoro-3-(((3-fluoro-4-methylphenyl)thio)methylene)thiochroman-4-one] | 49.2% | 44.5% | 42.4% | 43.9% | 37.6% | – | 53.3% | 39% | 50.6% | 34.2% | 59.5% | 64 µg/mL (≈ 191 µM) | 16 µg/mL (≈ 47.8 µM) | – | – | – | 16 µg/mL (≈ 47.8 µM) | – | 64 µg/mL (≈ 191 µM) | – | inhibition at 5 µg/mL (HTB-94): 47.9%; inhibition at 5 µg/mL (HTB-131MDA-MB-453): 53.5%; inhibition at 5 µg/mL (HTB-38HT-29): 56.1%; MIC (E. floccosum): 64 µg/mL (≈ 191 µM) |
| O=C1/C(=C\Cl)CSc2sccc21 [Compound 24, (E)-5-(chloromethylene)-5,6-dihydro-4H-thieno[2,3-b]thiopyran-4-one] | 32.5% | 37% | 45.8% | 39.4% | 85.4% | 33.9% | 45.6% | 56.8% | – | – | 47.7% | 32 µg/mL (≈ 148 µM) | 4 µg/mL (≈ 18.5 µM) | 8 µg/mL (≈ 36.9 µM) | 8 µg/mL (≈ 36.9 µM) | 16 µg/mL (≈ 73.8 µM) | 16 µg/mL (≈ 73.8 µM) | 4 µg/mL (≈ 18.5 µM) | 16 µg/mL (≈ 73.8 µM) | 32 µg/mL (≈ 148 µM) | inhibition at 5 µg/mL (HTB-94): 51.3%; inhibition at 5 µg/mL (HTB-131MDA-MB-453): 47.6%; inhibition at 5 µg/mL (HTB-38HT-29): 43.4%; MIC (E. floccosum): 16 µg/mL (≈ 73.8 µM); MIC (Terchoderma): 16 µg/mL (≈ 73.8 µM); MIC [1]: 16 µg/mL (≈ 73.8 µM); MIC (C. albicans): 16 µg/mL (≈ 73.8 µM) |
